We go through 28 compounds from patent publication US12139477B2, “Compounds, salts thereof and methods for treatment of diseases” (ACADIA PHARMACEUTICALS INC., priority 2017, dated 2024).

5HT2A, sequence (P28223 whole entry): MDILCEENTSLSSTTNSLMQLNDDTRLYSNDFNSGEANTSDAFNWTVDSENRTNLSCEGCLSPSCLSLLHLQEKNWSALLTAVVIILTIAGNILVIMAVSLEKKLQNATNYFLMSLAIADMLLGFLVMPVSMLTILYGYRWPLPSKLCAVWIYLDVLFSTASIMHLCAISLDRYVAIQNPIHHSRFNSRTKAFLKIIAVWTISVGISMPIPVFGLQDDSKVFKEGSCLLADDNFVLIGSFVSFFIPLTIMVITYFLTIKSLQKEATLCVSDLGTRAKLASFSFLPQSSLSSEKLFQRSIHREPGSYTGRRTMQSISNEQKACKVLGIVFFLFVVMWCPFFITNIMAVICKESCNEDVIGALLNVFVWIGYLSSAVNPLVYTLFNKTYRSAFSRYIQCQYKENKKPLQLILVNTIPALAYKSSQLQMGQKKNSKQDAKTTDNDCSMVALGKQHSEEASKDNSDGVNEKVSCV

One assay has as its target 5HT2A (Homo sapiens, UniProt P28223). Briefly: Receptor Selection and Amplification (R-SAT) functional assay. It counts as cell-based. Also on record: expressed in transfected cells; host or cells: NIH3T3 cells, pSI mammalian expression vector. The conditions noted are these: NIH3T3 cells; Ki from IC50 by Cheng and Prussoff. The source says: Receptor Selection and Amplification (R-SAT) Assays. […] The IC50 determined in the RSAT assay was converted into a Ki value using the method of Cheng and Prussoff, Biochem Pharmacol., 1973 Dec. 1; 22(23):3099-108. pKi is the negative of the log(Ki).
On to `CCCCOc1ccc(CNC(=O)N(Cc2ccc(F)cc2F)C2CCNCC2)cc1.CCCCOc1ccc(CNC(=O)N(Cc2ccc(F)cc2F)C2CCNCC2)cc1.O=C(O)C(O)C(O)C(=O)O` [Example 123, 3-[(4-butoxyphenyl)methyl]-1-[(2,4-difluorophenyl)methyl]-1-(piperidin-4-yl)urea; Hemitartrate], for which the “5-HT2a (pKi) (R-SAT)” value came to 7.8.

The assay is the same for the next values; noted with them: NIH3T3 cells; Ki from IC50 by Cheng and Prussoff; read-out: 5-HT2a (pKi) (R-SAT) (converted).
Consider `CCCCC(CC)COc1ccc(CNC(=O)N(Cc2ccc(F)cc2F)C2CCN(C)CC2)cc1` (stereo not shown) [Example 147, 1-[(2,4-difluorophenyl)methyl]-3-({4-[(2-ethylhexyl)oxy]phenyl}methyl)-1-(1-methylpiperidin-4-yl)urea; Trifluoroacetic Acid], for which the Ki is 3.16 nM. Same read-out and setting: the value for `COc1ccc(CNC(=O)N(Cc2ccc(F)cc2F)C2CCN(C)CC2)c(C(F)(F)F)c1` [Example 53] was 25.1 nM; that for `CCCOc1ccc(CNC(=O)N(Cc2ccc(F)cc2F)C2CCN(C)CC2)cc1` [Example 140, 1-[(2,4-difluorophenyl)methyl]-1-(1-methylpiperidin-4-yl)-3-[(4-propoxyphenyl)methyl]urea] was 3.16 nM. The same measure, in the same setting: the value for `C[C@H](c1ccc(F)cc1F)N(C(=O)NCc1ccc(OC2CC2)cc1)C1CCN(C)CC1` [Example 47] was 126 nM; that for `COc1cc(F)c(F)cc1CN(C(=O)NCc1ccc(OC(C)C)cc1)C1CCNCC1` [Example 83, 3-[(4,5-difluoro-2-methoxyphenyl)methyl]-3-(piperidin-4-yl)-1-{[4-(propan-2-yloxy)phenyl]methyl}urea; Trifluoroacetic Acid] was 158 nM; that for `CC(C)COc1ccc(CNC(=O)N(Cc2ccc(F)cc2N(C)C)C2CCN(C)CC2)cc1` [Example 69] was 631 nM. Same read-out and setting: the value for `CN1CCC(N(Cc2ccc(F)cc2F)C(=O)NCc2ccc(Oc3ccccc3)cc2)CC1` [Example 120, 3-[(2,4-difluorophenyl)methyl]-3-(1-methylpiperidin-4-yl)-1-[(4-phenoxyphenyl)methyl]urea] was 7.94 nM; that for `CN1CCC(N(Cc2ccc(F)cc2F)C(=O)NCc2cccc3c2CC(C)(C)O3)CC1` [Example 58] was 158 nM. In the case of `O=C(O)C(F)(F)F.[2H]C([2H])([2H])C(Oc1ccc(CNC(=O)N(Cc2ccc(F)cc2F)C2CCN(C)CC2)cc1)(C([2H])([2H])[2H])C([2H])([2H])[2H]` [Example 46], the Ki was 0.794 nM. Still for that read-out and setting: next, `COc1ccc(CNC(=O)N(Cc2ccc(F)cc2F)C2CCN(C)CC2)cc1F` [Example 118, 1-[(2,4-difluorophenyl)methyl]-3-[(3-fluoro-4-methoxyphenyl)methyl]-1-(1-methylpiperidin-4-yl)urea]: 10 nM; `COc1ccc(CNC(=O)N(Cc2ccc(F)cc2F)C2CCN(C)CC2)c(Cl)c1` [Example 51]: 25.1 nM. As to `CC(C)COc1ccc(CNC(=O)N(Cc2ccc(F)cc2OC(F)F)C2CCN(C)CC2)cc1` [Example 101, 1-{[2-(difluoromethoxy)-4-fluorophenyl]methyl}-1-(1-methylpiperidin-4-yl)-3-{[4-(2-methylpropoxy)phenyl]methyl}urea; Trifluoroacetic Acid], the Ki was 79.4 nM.

For `CN1CCC(N(Cc2ccc(F)cc2F)C(=O)NCc2ccc3c(c2)N(C)CCO3)CC1` [Example 32], the Ki was 7.94 nM. On the same count and under the same terms, next, `CC(C)Oc1ccc(CNC(=O)N(Cc2ccc(Cl)cc2F)C2CCNCC2)cc1` [Example 133, 3-[(4-chloro-2-fluorophenyl)methyl]-3-(piperidin-4-yl)-1-{[4-(propan-2-yloxy)phenyl]methyl}urea; Trifluoroacetic Acid]: 5.01 nM; `CC(C)COc1ccc(CNC(=O)N(Cc2cc(F)ccc2F)C2CCN(C)CC2)cc1` [Example 63]: 79.4 nM. The same measure, in the same setting: the value for `CN1CCC(N(Cc2ccc(F)cc2F)C(=O)NCc2ccc3[nH]cnc3c2)CC1` [Example 77, 3-[(1H-1,3-benzodiazol-5-yl)methyl]-1-[(2,4-difluorophenyl)methyl]-1-(1-methylpiperidin-4-yl)urea; Trifluoroacetic Acid] was 79.4 nM; that for `Cc1cc(OC(C)C)ccc1CNC(=O)N(Cc1ccc(F)cc1F)C1CCN(C)CC1` [Example 116, 1-[(2,4-difluorophenyl)methyl]-3-{[2-methyl-4-(propan-2-yloxy)phenyl]methyl}-1-(1-methylpiperidin-4-yl)urea; Hemitartrate] was 63.1 nM. On the same count and under the same terms, the value for `CC(C)Oc1ccc(CNC(=O)N(Cc2ccc(F)c(F)c2F)C2CCNCC2)cc1` [Example 132, 1-(piperidin-4-yl)-3-{[4-(propan-2-yloxy)phenyl]methyl}-1-[(2,3,4-trifluorophenyl)methyl]urea; Trifluoroacetic Acid] was 79.4 nM. As to `CN1CCC(N(Cc2ccc(F)cc2F)C(=O)NCc2ccc3ocnc3c2)CC1` [Example 30], the Ki is 63.1 nM. As for `Cc1ccc(F)c(CN(C(=O)NCc2ccc(OC(C)C)cc2)C2CCN(C)CC2)c1F` [Example 112, 1-[(2,6-difluoro-3-methylphenyl)methyl]-1-(1-methylpiperidin-4-yl)-3-{[4-(propan-2-yloxy)phenyl]methyl}urea; Trifluoroacetic Acid], the Ki was 39.8 nM. On the same count and under the same terms, next, `CN1CC[C@@H](N(Cc2ccc(F)cc2F)C(=O)NCc2ccc(OC3CC3)cc2)[C@@H](F)C1` (racemic) [Example 117, 1-[(4-cyclopropoxyphenyl)methyl]-3-[(2,4-difluorophenyl)methyl]-3-[(3S,4R)-3-fluoro-1-methylpiperidin-4-yl]urea and 1-[(4-cyclopropoxyphenyl)methyl]-3-[(2,4-difluorophenyl)methyl]-3-[(3R,4S)-3-fluoro-1-methylpiperidin-4-yl]urea]: 0.398 nM; `CC(C)COc1ccc(CNC(=O)N(Cc2c(F)cc(Cl)cc2F)C2CCN(C)CC2)cc1` [Example 71]: 12.6 nM. For the compound `CN1CCC(N(Cc2ccc(F)cc2F)C(=O)NCc2ccc(O)cc2F)CC1` [Example 119, 1-[(2,4-difluorophenyl)methyl]-3-[(2-fluoro-4-hydroxyphenyl)methyl]-1-(1-methylpiperidin-4-yl)urea], the Ki is 63.1 nM. On the same count and under the same terms, the value for `COc1ccc(CNC(=O)N(Cc2ccc(F)cc2)[C@H]2CCN(C)C[C@H]2F)c(OC)c1` (racemic) [Example 1, 1-[(2,4-dimethoxyphenyl)methyl]-3-[(3R,4S)-3-fluoro-1-methylpiperidin-4-yl]-3-[(4-fluorophenyl)methyl]urea; Trifluoroacetic Acid (1a) and 1-[(2,4-dimethoxyphenyl)methyl]-3-[(3S,4R)-3-fluoro-1-methylpiperidin-4-yl]-3-[(4-fluorophenyl)methyl]urea; Trifluoroacetic Acid (1b)] was 25.1 nM. Still for that read-out and setting: the value for `CC(C)COc1ccc(CNC(=O)N(Cc2cc(F)c(F)cc2F)C2CCN(C)CC2)cc1` [Example 70] was 50.1 nM.

Regarding `[2H]C([2H])([2H])Oc1ccc(CNC(=O)N(Cc2ccc(F)cc2F)C2CCN(C)CC2)cc1` [Example 73, 1-[(2,4-difluorophenyl)methyl]-3-{[4-(^2H3)methoxyphenyl]methyl}-1-(1-methylpiperidin-4-yl)urea], the Ki was 6.31 nM. The same measure, in the same setting: next, `COc1ccc(CNC(=O)N(Cc2ccc(F)cc2F)C2CCN(C)CC2)cc1C#N` [Example 48]: 100 nM.
